Source: patent US6916905B2, “Dmt-Tic di-and tri-peptidic derivatives and related compositions and methods of use” (The United States of America as represented by the …, priority 2000, dated 2005)
“Also recorded” adds a separate entry of the source. Like-named read-outs stand apart in the source and are kept apart here. Marks after values point to notes of the source that are not given here. Non-standard residues stand in square brackets, D forms with d. Residues, ends and D or L forms follow the SMILES beside them. *: point of attachment. Dmt = Cc1cc(O)cc(C)c1C[C@H](N)C(=O)O; Tic = O=C(O)[C@@H]1Cc2ccccc2CN1; NHPh = c1ccc(N*)cc1

Columns and labels:
[1] = target: T1, δ-opioid receptors (Rattus norvegicus, UniProt P33533); conditions: selectivity; Kiδ from [3H]DPDPE; cells marked a/b: Salvadori et al. (1995), (1997); cited from earlier work
T1 construct: assayed with a rat brain synaptosomal preparation (P2); from tissue; host or cells: rat brain P2 synaptosomes
T1 sequence (P33533 whole entry): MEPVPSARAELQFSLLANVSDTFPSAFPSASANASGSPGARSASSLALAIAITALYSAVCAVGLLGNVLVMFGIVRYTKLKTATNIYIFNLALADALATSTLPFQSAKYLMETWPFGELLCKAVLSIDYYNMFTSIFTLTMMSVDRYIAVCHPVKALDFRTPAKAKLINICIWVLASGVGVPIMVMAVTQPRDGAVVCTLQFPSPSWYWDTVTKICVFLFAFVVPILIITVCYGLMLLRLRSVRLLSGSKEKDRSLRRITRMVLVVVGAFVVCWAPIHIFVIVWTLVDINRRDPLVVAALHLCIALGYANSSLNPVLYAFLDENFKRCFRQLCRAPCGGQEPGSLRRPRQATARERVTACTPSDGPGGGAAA

[2] = target: T2, μ-opioid receptors (Rattus norvegicus, UniProt P33535); assay: Rat brain synaptosome (P2) binding, [3H]DAGO (Example 47); conditions: rat brain synaptosomes (P2); mean ± SEM, n in parentheses; read-out: Kiμ (nM) [^3H]DAGO
T2 construct: assayed with a rat brain synaptosomal preparation (P2); from tissue; host or cells: rat brain P2 synaptosomes
T2 sequence (P33535 whole entry): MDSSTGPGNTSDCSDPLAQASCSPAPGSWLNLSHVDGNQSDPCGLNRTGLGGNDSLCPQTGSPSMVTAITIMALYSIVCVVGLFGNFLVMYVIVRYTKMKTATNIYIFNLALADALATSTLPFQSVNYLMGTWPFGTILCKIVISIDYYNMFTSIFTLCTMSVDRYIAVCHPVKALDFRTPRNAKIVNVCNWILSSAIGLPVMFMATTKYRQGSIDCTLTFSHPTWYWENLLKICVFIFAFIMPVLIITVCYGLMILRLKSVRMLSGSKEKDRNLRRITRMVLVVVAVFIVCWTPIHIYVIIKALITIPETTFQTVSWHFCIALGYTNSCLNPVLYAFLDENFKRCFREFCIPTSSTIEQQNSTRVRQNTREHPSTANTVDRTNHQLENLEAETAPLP

[3] = target: T1, δ-opioid receptors; assay: Rat brain synaptosome (P2) binding, δ antagonist [3H]N,N(CH3)2-Dmt-Tic-OH (Example 47); conditions: selectivity; Kiδ from antagonist radioligand [3H]N,N(CH3)2-Dmt-Tic-OH
Method: (§2) Briefly, the agonists [^3H]DPDPE (30-60 Ci/mmol, NEN-DuPont) and [^3H]DAGO (30-60 Ci/mmol, Amersham) were used to label δ and μ sites, respectively, under saturation binding conditions (2 hrs at 22° C.). Excess unlabeled peptide (2 μM) established non-specific binding levels and the labeled membranes were rapidly filtered on Whatman GF/C glass fibre filters, thoroughly washed, dried and measured for radioactivity using CytoScint (ICN, Irvine, Calif.). […] The affinity constants (Ki) were calculated according to Cheng and Prusoff (Biochem. Pharmacol. 22: 3099-3108 (1973)).

[4] = target: T1, δ-opioid receptors; assay: Rat brain synaptosome (P2) binding, agonist [3H]DPDPE (Example 47); conditions: rat brain synaptosomes (P2); mean ± SEM, n in parentheses; read-out: Kiδ(nM) [^3H]DPDPE
Method: as §2

[5] = target: T3, μ receptors (Rattus norvegicus, UniProt P33535); assay: Radio-receptor competition assay, rat brain synaptosomes, [3H]DAGO (Example 74); format: binding; conditions: for Ki: rat brain P2 synaptosomes, [3H]DAGO
T3 construct: assayed with a rat brain synaptosomal preparation (P2); from tissue; host or cells: rat brain P2 synaptosomes
T3 sequence (P33535 whole entry): as above
Method: (§1) After 120 min incubation at room temperature (23-24° C.), the samples were rapidly filtered through Whatman GF/C glass fiber filers and washed three times with 2 ml ice-cold 0.05 M Tris, pH 7.4-7.5, containing 0.1% BSA. Presoaking filters in 0.1% polyethylenimine is only required in assays with peptides carrying an overall positive charge, such as dynorphin or nociceptin (Guerrini et al., J. Med. Chem., 40: 1789-1793 (1997)). Non-specific binding was determined using 2 μM unlabeled DPDPE or DAGO for δ or μ assays, respectively. The Ki data, determined according to Cheng and Prusoff (Cheng et al., Biochem. Pharmacol., 22: 3099-3108 (1973)), represent the means±SE from 3 or more independent assays using at least 3 different synaptosome preparations and testing the analogues with 5-8 graded dosages over 2-3 orders of magnitude in concentration.

[6] = target: T4, δ receptors (Mus musculus, UniProt P32300); conditions: for MVD Ke: δ antagonism, Ke = antilog of pA2
T4 sequence (P32300 whole entry): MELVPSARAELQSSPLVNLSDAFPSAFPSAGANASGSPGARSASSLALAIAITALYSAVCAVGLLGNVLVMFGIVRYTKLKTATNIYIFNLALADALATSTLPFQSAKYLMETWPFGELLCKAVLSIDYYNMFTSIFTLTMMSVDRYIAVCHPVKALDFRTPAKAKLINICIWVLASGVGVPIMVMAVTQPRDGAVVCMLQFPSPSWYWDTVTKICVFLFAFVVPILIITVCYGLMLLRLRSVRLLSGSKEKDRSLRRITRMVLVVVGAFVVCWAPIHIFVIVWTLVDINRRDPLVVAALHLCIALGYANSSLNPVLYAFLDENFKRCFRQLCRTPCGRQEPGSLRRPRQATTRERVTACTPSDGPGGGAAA
Method: The functional bioactivity of the present inventive compounds was assessed using standard functional bioassays of δ and μ activity in MVD and GPI (Salvadori et al. (1995), supra; and Salvadori et al., J. Med. Chem. 36: 3748-3756 (1993)). […] Dose-response curves were obtained (Salvadori et al. (1995), supra) for both tissues. […] Data were derived from at least four independent tissue samples and dose-response curves from which the pA2 values were determined (Salvadori et al. (1997), supra) according to Arunlakshana and Schild (Br. J. Pharmacol. 14: 48-58 (1959)).

[7] = target: T5, δ receptors (Rattus norvegicus, UniProt P33533); assay: Radio-receptor competition assay, rat brain synaptosomes, [3H]DPDPE (Example 74); format: binding; conditions: for Ki: rat brain P2 synaptosomes, [3H]DPDPE, read-out: Receptor affinity (nM) Kiδ; for μ/δ: selectivity Kiμ/Kiδ
T5 construct: assayed with a rat brain synaptosomal preparation (P2); from tissue; host or cells: rat brain P2 synaptosomes
T5 sequence (P33533 whole entry): as the sequence (P33533 whole entry) above
Method: as §1

[8] = target: hMDR-1 (Homo sapiens, UniProt P08183); assay: Calcein AM assay for Pgp in hMDR-1 transfected G-185 fibroblasts (Example 49); conditions: calcein fluorescence
hMDR-1, sequence (P08183 whole entry): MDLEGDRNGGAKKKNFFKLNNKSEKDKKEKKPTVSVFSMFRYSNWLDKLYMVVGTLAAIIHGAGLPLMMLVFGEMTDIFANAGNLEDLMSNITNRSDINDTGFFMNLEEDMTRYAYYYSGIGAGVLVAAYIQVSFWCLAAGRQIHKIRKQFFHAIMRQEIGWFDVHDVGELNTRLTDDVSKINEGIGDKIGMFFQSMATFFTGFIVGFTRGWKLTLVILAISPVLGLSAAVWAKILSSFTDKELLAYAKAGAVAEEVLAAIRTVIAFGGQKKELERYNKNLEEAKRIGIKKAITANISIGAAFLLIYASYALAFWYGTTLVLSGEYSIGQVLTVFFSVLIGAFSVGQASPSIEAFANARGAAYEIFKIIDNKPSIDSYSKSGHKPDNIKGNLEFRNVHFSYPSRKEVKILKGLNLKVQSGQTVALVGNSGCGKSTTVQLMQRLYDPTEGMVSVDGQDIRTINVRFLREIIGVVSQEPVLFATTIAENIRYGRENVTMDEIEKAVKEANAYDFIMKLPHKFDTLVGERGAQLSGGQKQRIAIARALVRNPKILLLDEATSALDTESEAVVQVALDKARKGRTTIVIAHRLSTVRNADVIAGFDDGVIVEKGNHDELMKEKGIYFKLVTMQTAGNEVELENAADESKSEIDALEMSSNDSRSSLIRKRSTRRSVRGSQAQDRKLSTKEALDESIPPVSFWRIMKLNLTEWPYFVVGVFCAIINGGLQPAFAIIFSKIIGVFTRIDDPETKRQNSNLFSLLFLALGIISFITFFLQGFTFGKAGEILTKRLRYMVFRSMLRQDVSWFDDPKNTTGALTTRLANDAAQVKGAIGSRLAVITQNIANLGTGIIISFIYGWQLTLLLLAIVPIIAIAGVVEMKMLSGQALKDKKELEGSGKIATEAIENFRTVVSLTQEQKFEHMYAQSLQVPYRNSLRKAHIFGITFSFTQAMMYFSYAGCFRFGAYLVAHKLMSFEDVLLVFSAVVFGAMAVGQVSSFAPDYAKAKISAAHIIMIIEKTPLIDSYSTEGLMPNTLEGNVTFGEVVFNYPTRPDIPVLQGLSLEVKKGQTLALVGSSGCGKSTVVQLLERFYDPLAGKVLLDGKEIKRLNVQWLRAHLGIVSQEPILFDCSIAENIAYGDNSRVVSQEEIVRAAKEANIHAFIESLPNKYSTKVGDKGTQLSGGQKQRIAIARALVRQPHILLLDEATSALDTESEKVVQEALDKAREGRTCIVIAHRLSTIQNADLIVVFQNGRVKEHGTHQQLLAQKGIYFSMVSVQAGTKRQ
Method: Stably transfected G-185 fibroblasts containing hMDR-1 and NIH 3T3 cell lines were grown to confluent monolayers in DMEM containing 4.5 g glucose/1, 10% fetal calf serum, L-glutamine, penicillin (50 units/ml), streptomycin (50 μg/ml) and 1 mM sodium pyruvate in 5% CO2 at 37° C. G-185 cells were maintained in […] colchicine.
The assay for Pgp is based on the diffusion of non-fluorescent calcein AM across the cell membrane. Calcein AM is then hydrolyzed and accumulates as the fluorescent calcein. In transfected cells expressing excess hMDR-1, Pgp extrudes calcein AM from the cell before hydrolysis occurs; inhibition of hMDR-1 results in the accumulation of intracellular calcein. Transfected G-185 cells and the NIH 3T3 cells were analyzed in triplicate using seven graded dosages of verapamil or the opioid peptides in 96-well plates. Cells (2.5×10^6/well) were incubated in 100 μl culture medium for 15 min at 37° C. and 50 μl of 1 μM calcein AM in PBS, plus 50 μl of verapamil or one of the present inventive compounds in PBS, or 100 μl of PBS alone (control) were added. Cells were mixed and incubated for 15 min at 37° C., then centrifuged for 5 min at 2,000×g, and then washed three times in 200 μl PBS. Cell pellets were resuspended in 200 μl PBS and transferred to white Microfluor Plates (Nunc, Copenhagen, Denmark) in order to measure calcein-specific fluorescence (494 nm absorption; 517 nm emission). Internal controls were carried out with each experiment using verapamil and PBS in order to compare the consistency between cell preparations. Means±SE (error bars) were determined and plotted using Prism™ (GraphPad, San Diego, Calif.).

[9] = target: T4, δ receptors; assay: MVD functional pharmacological bioassay (Example 75); design: A single MVD was suspended in 4 ml modified Kreb's solution; from tissue; host or cells: mouse vas deferens
[10] = target: T6, μ receptors (Cavia porcellus, UniProt P97266); assay: GPI functional pharmacological bioassay (Example 75); design: species or system guinea pig; conditions: μ agonism
T6 sequence (P97266 whole entry, looked up): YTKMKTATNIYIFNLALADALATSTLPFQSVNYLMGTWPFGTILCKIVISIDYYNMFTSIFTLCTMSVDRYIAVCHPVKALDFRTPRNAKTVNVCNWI
Method: The in vitro pharmacological assays used a single MVD for δ receptors and a 2- to 3-cm segment of GPI for μ receptors with each suspended in 20 ml organ baths containing balanced salt solutions in a physiological buffer (Salvadori et al., Mol. Med., 1: 678-689 (1995)). […] Data were obtained from 4 independent assays and tissue samples. Agonism is expressed as the IC50 (nM) value and antagonism as pA2 (Labarre et al., Eur. J. Pharm., 406: R1-R3 92000)).

[11] = target: T6, μ receptors; conditions: Balboni et al. (2000); read-out: μ agonist activity IC50, published data; cited from earlier work
[12] = target: T4, δ receptors; design: A single MVD was suspended in 4 ml modified Kreb's solution; from tissue; host or cells: mouse vas deferens; conditions: Balboni et al. (2000); cited from earlier work
[13] = target: T1, δ-opioid receptors; conditions: radioligand; Kertesz et al. (1998); cited from earlier work
[14] = read-out: Receptor affinity (nM) Kiμ

Molecule | Agonist K1μ/Kiδ [1] | Ki [2] [nM] | Antagonist K1μ/Kiδ [3] | Ki [5, 14] [nM] | MVD Ke [6] [nM] | Ki [7] [nM] | μ/δ [7] | other results
Cc1cc(O)cc(C)c1C[C@H](N)C(=O)N1Cc2ccccc2C[C@H]1C(=O)N[C@@H](C)C(N)=O [H-Dmt-Tic-Ala-NH2, reference compound] (H-[Dmt]-[Tic]-Ala-NH2) | 195^a | 47 ± 3.4 | 68 | 47 | 9.0 | 0.22 | 195 | Ki [4]: 0.24 ± 0.02 nM; inhibition of hMDR-1 (Pgp), in words [8]: inactive
Cc1cc(O)cc(C)c1C[C@H](N)C(=O)N1Cc2ccccc2C[C@H]1C(N)=O [H-Dmt-Tic-NH2] (H-[Dmt]-[Tic]-NH2) | 227^a |  |  |  |  |  |  | 
Cc1cc(O)cc(C)c1C[C@H](N)C(=O)N1Cc2ccccc2C[C@H]1C(=O)NCC(=O)Nc1ccccc1 [Compound 27, H-Dmt-Tic-Gly-NH-Ph] (H-[Dmt]-[Tic]-Gly-NHPh) |  |  |  | 0.16 |  | 0.042 | 3.6 | Ki ([5]; Receptor affinity (nM) Kiμ): < 1 nM; EC50 [9]: 3.02 nM; δ activity on MVD, in words [9]: potent δ-agonist activity; also recorded: essentially equivalent activity as a δ agonist and a μ agonist; lower antagonist activity of N,N(Me)2-Dmt-Tic-OH against this agonist than against deltorphin C and 24 ([9]; MVD): 5 fold; MVD, antagonist activity (pA2) N,N(CH3)2-Dmt-Tic-OH ([9]; pA2 of N,N(CH3)2-Dmt-Tic-OH against the listed δ agonist): 9.04; MVD, antagonist activity (pA2) naloxone ([9]; pA2 of naloxone against the listed δ agonist): 7.47; Functional Bioactivity GPI (pEC50) [10]: 8.59
Cc1cc(O)cc(C)c1CC(N)C(=O)N1Cc2ccccc2CC1c1nc2ccccc2[nH]1 (stereo not drawn) [Compound 23, 2-amino-1-[3-(1H-benzoimidazole-2-yl)-3,4-dihydro-1H-isoquinoline-2-yl]-3-(4-hydroxyl-2,6-dimethylphenyl)-propane-1-one] |  |  |  | 7.22 |  | 0.13 | 7.28 | increase in μ receptor affinity relative to H-Dmt-Tic-NH2 [5]: ~40 fold; IC50 [11]: 30 nM; reduction of electrical stimulation of the tissue ([9]; high concentration (up to 1 μM)): 83%; δ binding affinity greater than H-Dmt-Tic-ol [7]: 3 fold; δ binding affinity higher than H-Dmt-Tic-NH2 [7]: 10 fold; δ antagonism pA2, published data [12]: 7.67
Cc1cc(O)cc(C)c1C[C@H](N)C(=O)N1Cc2ccccc2C[C@H]1C(=O)O [H-Dmt-Tic-OH, reference compound] (H-[Dmt]-[Tic]-OH) | 150800^a | 3320 ± 435 |  | 3320 | 5.7 |  |  | 
Cc1cc(O)cc(C)c1C[C@H](N)C(=O)N1Cc2ccccc2C[C@H]1C(=O)N[C@@H](C)C(=O)O [H-Dmt-Tic-Ala-OH, reference compound] (H-[Dmt]-[Tic]-Ala-OH) | 2852^a |  | 2784 |  | 4.0 |  |  | 
Cc1cc(O)cc(C)c1C[C@@H](C(=O)N1Cc2ccccc2C[C@H]1C(=O)O)N(C)C [N,N(Me)2-Dmt-Tic-OH, reference compound] | 20636^b | 2440 ± 462 | 34785 |  |  |  |  | MVD pA2 (range) ([6]; δ antagonism against deltorphin C, mean (range)): 9.4; inhibition of hMDR-1 (Pgp), in words [8]: inactive
[^3H]N,N-(CH3)2-Dmt-Tic-OH |  |  |  |  |  |  |  | Kd [13]: 0.39 nM
